Here are results for five molecules from patent publication US8263613B2, “Salts, prodrugs and polymorphs of fab I inhibitors” (Affinium Pharmaceuticals, Inc., priority 2007, dated 2012).

Converted amounts (≈) assume the structure as drawn. Read-outs that look alike come from different tables or passages of the source.

Series [1] in a line: Pharmacokinetic study in male rats, single oral dose in 80% PEG400. Particulars: rat, in vivo.
Series [2] is described as follows: Solubility in cyclodextrins. In kind it is physicochemical. Particulars: for solubility: aqueous with cosolvent or surfactant or cyclodextrin, thermodynamic from solid.
The subject of series [3] is Staphylococcus aureus ATCC 29213. As to the kind of experiment: Mouse thigh abscess infection model. In kind it is in vivo. Particulars: for ED50: Staphylococcus aureus, ATCC29213; for ED50 / ED80 / Static dose: mice, oral, Inhibitory Effect Sigmoid Emax Model fit; for Average Change logCFU/thigh: neutropenic mice, 6 hours post dose, vs time 0 controls. How it is done: Compound A (free base) unmilled, and the tosylate salt of Compound A milled were tested in the same mouse thigh abscess model following single oral doses in 0.5% carboxymethyl cellulose. Mice (6 per dosing group) were rendered neutropentic, and the thigh of each mouse was injected with 1×10^5 colony forming units (CFU) of Staphylococcus aureus ATCC 29213. Two hours post infection, mice were dosed with the drug orally, and at 6 hours post dose, bacterial viable counts where determined from the thighs of all the mice. Efficacy was calculated as the average change in CFU/thigh compared to time 0 (time of dosing) controls.

Series [4] in a line: Oral pharmacokinetic study in male rats (oral gavage). In kind it is in vivo, rat. Particulars: for AUC(0-t) / Cmax: male, CD, rat, po. The procedure:
Compound A (free base) and B (toslyate monohydrate salt of compound A) was administered to male rats, strain CD®, via oral gavage using 1% Poloxamer 407 or 0.5% carboxymethyl cellulose (CMC) as the vehicle (Table 1). All doses were calculated as free base equivalents.
For each dosing group blood was collected from 3 animals at each of the following time points: 0, 0.5, 1, 2, 4, 6, 8, 10, 12, 16, 24, and 48 hours post dose. Plasma was prepared using standard techniques with sodium heparin as anti-coagulant. The Compound A and B plasma concentrations were determined using a GLP-validated LC/MS/MS bioanalytical method. Pharmacokinetic analyses were performed using PK Solutions 2.0™ or WinNonLin 5.1.

The mark [5] stands for this setting: male, po, 30 mg/kg, single oral dose 30 mg/kg in 80% PEG400, particle state Milled.
Where [6] appears, read: male, po, 30 mg/kg, single oral dose 30 mg/kg in 80% PEG400, particle state Unmilled.
The mark [7] stands for this setting: single oral dose 0.3 mg/kg in 0.5% carboxymethyl cellulose.
[8] abbreviates: single oral dose 1 mg/kg in 0.5% carboxymethyl cellulose.
The mark [9] stands for this setting: single oral dose 3 mg/kg in 0.5% carboxymethyl cellulose.
Where [10] appears, read: single oral dose 10 mg/kg in 0.5% carboxymethyl cellulose.
Where [11] appears, read: single oral dose 30 mg/kg in 0.5% carboxymethyl cellulose.
[12] abbreviates: plasma, 10 mg/kg, 10 mg/kg (free base equivalents), 0.5% CMC.
Where [13] appears, read: plasma, 10 mg/kg, 10 mg/kg (free base equivalents), 1% Poloxamer 407.
[14] abbreviates: plasma, 30 mg/kg, 30 mg/kg (free base equivalents), 0.5% CMC.
Setting [15] is: plasma, 75 mg/kg, 75 mg/kg (free base equivalents), 0.5% CMC.
[16] abbreviates: single oral dose 30 mg/kg in 80% PEG400, particle state Unmilled.
Setting [17] is: in vivo, 10 mg/kg, 10 mg/kg (free base equivalents), 0.5% CMC.
Setting [18] is: in vivo, 10 mg/kg, 10 mg/kg (free base equivalents), 1% Poloxamer 407.
Setting [19] is: in vivo, 30 mg/kg, 30 mg/kg (free base equivalents), 0.5% CMC.
Where [20] appears, read: in vivo, 75 mg/kg, 75 mg/kg (free base equivalents), 0.5% CMC.

For orientation: AUC(0-inf) means the area under the concentration-time curve extrapolated to infinity. Read a low AUC(0-inf) as low exposure. A word on the AUC(0-t): it is exposure summed from dosing to a finite time, without extrapolation to infinity. As usually defined, the Cmax is the highest concentration seen after dosing. As a reminder, the half-life is the time needed for the level to fall by half in the phase considered. One may read the solubility as the concentration that dissolves in the medium under given conditions. By ED50 is commonly meant the dose that gives a 50% effect, or the effect in half of the subjects. In the case of `Cc1c(CN(C)C(=O)/C=C/c2cnc3c(c2)CCC(=O)N3)oc2ccccc12` [Free base, (E)-N-methyl-N-((3-methylbenzofuran-2-yl)methyl)-3-(7-oxo-5,6,7,8-tetrahydro-1,8-naphthyridin-3-yl)acrylamide], the AUC(0-inf) in series [1] (setting [5]) worked out at 6570 ng·h/mL; in series [1] (setting [6]), 1260 ng·h/mL. Also, the AUC(0-t) in series [1] (setting [5]) came to 6370 ng·h/mL; in series [1] (setting [6]), 1160 ng·h/mL; in series [4] (setting [12]), 980 ng·h/mL; in series [4] (setting [13]), 883 ng·h/mL; in series [4] (setting [14]) it was 1620 ng·h/mL; in series [4] (setting [15]), 2370 ng·h/mL. Also, the highest concentration (Cmax) in series [1] (setting [5]) came to 1970 ng/mL; in series [1] (setting [6]), 421 ng/mL; in series [4] (setting [12]), 163 ng/mL; in series [4] (setting [13]), 157 ng/mL; in series [4] (setting [14]), 176 ng/mL; in series [4] (setting [15]), 246 ng/mL. The half-life in series [1] (setting [5]) is 5.5 h; in series [1] (setting [6]), 2 h. In addition, the solubility worked out at 20 µg/mL (≈ 53.3 µM) in series [2] (10% hydroxypropyl beta-cyclodextrin, cyclodextrin concentration 10%, shake-flask technique, read-out: Solubility in Hydroxypropyl Beta-Cyclodextrin); 9 µg/mL (≈ 24 µM) in series [2] (10% hydroxypropyl beta-cyclodextrin, cyclodextrin concentration 10%, evaporating an ethanol/water/DMA blend of cyclodextrin and API and reconstituting with water, read-out: Solubility in Hydroxypropyl Beta-Cyclodextrin); 7 µg/mL (≈ 18.6 µM) in series [2] (10% sulfobutyl ether beta-cyclodextrin, cyclodextrin concentration 10%, read-out: Solubility in Sulfobutyl Ether Beta-Cyclodextrin). The ED50 in series [3] amounted to 4 mg/kg. Further, in series [3], the ED80 amounted to 8.8 mg/kg. Moreover, the Static dose in series [3] was found to be 10.5 mg/kg. For the same molecule, the “Average Change logCFU/thigh” value in series [3] (setting [7]) was 1.6 logCFU/thigh; in series [3] (setting [8]) it was 1.35 logCFU/thigh; in series [3] (setting [9]) it was 0.3 logCFU/thigh; in series [3] (setting [10]), 0.36 logCFU/thigh; in series [3] (setting [11]), −0.29 logCFU/thigh.
`CS(=O)(=O)O.Cc1c(CN(C)C(=O)/C=C/c2cnc3c(c2)CCC(=O)N3)oc2ccccc12` [Mesylate, (E)-N-methyl-N-((3-methylbenzofuran-2-yl)methyl)-3-(7-oxo-5,6,7,8-tetrahydro-1,8-naphthyridin-3-yl)acrylamide methane sulfonate]: in series [1] (setting [5]), the total exposure AUC(0-inf) stood at 6040 ng·h/mL, the AUC(0-t) was 5770 ng·h/mL, the Cmax turned out to be 884 ng/mL and the half-life is 5 h.
In series [1] (setting [16]), `Cc1c(CN(C)C(=O)/C=C/c2cnc3c(c2)CCC(=O)N3)oc2ccccc12.O=S(=O)(O)O` [Sulfate, (E)-N-methyl-N-((3-methylbenzofuran-2-yl)methyl)-3-(7-oxo-5,6,7,8-tetrahydro-1,8-naphthyridin-3-yl)acrylamide sulfate] had an AUC(0-inf) of 9970 ng·h/mL, an AUC(0-t) of 9480 ng·h/mL, a Cmax of 1940 ng/mL and a half-life of 5.7 h.
On to `Cc1c(CN(C)C(=O)/C=C/c2cnc3c(c2)CCC(=O)N3)oc2ccccc12.Cc1ccc(S(=O)(=O)O)cc1.O` [Tosylate monohydrate milled, (E)-N-methyl-N-((3-methylbenzofuran-2-yl)methyl)-3-(7-oxo-5,6,7,8-tetrahydro-1,8-naphthyridin-3-yl)acrylamide Tosylate Monohydrate], for which the solubility in series [2] (cyclodextrin concentration 10%, read-out: Solubility in Hydroxypropyl Beta-Cyclodextrin) was found to be 26 µg/mL; in series [2] (cyclodextrin concentration 10%, read-out: Solubility in Sulfobutyl Ether Beta-Cyclodextrin), 67 µg/mL; in series [2] (cyclodextrin concentration 40%, read-out: Solubility in Hydroxypropyl Beta-Cyclodextrin), 370 µg/mL; in series [2] (cyclodextrin concentration 40%, read-out: Solubility in Sulfobutyl Ether Beta-Cyclodextrin), 4000 µg/mL. Besides, in series [2] (sulfobutyl ether beta-cyclodextrin, cyclodextrin concentration 10%), the “Solubility relative to the free base milled form” value was “approximately 10 fold”. The “Ratio of tosylate monohyrate/free base AUClast” value in series [4] (10 mg/kg, 0.5% CMC) is given as 2.1; in series [4] (10 mg/kg, 1% Poloxamer 407) it was 3.0; in series [4] (30 mg/kg, 0.5% CMC), 2.3; in series [4] (75 mg/kg, 0.5% CMC), 1.8. The “Ratio of tosylate monohyrate/free base Cmax” value in series [4] (10 mg/kg, 0.5% CMC) is given as 2.1; in series [4] (10 mg/kg, 1% Poloxamer 407), 2.2; in series [4] (30 mg/kg, 0.5% CMC) it was 2.5; in series [4] (75 mg/kg, 0.5% CMC) it was 2.4. Besides, the AUC(0-t) in series [4] (setting [17]) came out at 2040 ng·h/mL; in series [4] (setting [18]) it was 2660 ng·h/mL; in series [4] (setting [19]), 3680 ng·h/mL; in series [4] (setting [20]), 4260 ng·h/mL. The Cmax in series [4] (setting [17]) was 347 ng/mL; in series [4] (setting [18]) it was 348 ng/mL; in series [4] (setting [19]), 434 ng/mL; in series [4] (setting [20]), 595 ng/mL.
`Cc1c(CN(C)C(=O)/C=C/c2cnc3c(c2)CCC(=O)N3)oc2ccccc12.Cc1ccc(S(=O)(=O)O)cc1` [Tosylate, (E)-N-methyl-N-((3-methylbenzofuran-2-yl)methyl)-3-(7-oxo-5,6,7,8-tetrahydro-1,8-naphthyridin-3-yl)acrylamide p-toluene sulfonate]: in series [1] (setting [5]), the AUC(0-inf) was 9510 ng·h/mL, the AUC(0-t) stood at 9460 ng·h/mL, the Cmax amounted to 1610 ng/mL and the half-life was 3.5 h. Moreover, in series [3], the ED50 is 1.3 mg/kg, the ED80 was 3.4 mg/kg and the Static dose is recorded as 2.4 mg/kg. Also, in series [3] (setting [7]), the “Average Change logCFU/thigh” value is 1.31 logCFU/thigh. The “Average Change logCFU/thigh” value in series [3] (setting [8]) worked out at 1.08 logCFU/thigh. Also, in series [3] (setting [9]), the “Average Change logCFU/thigh” value was −0.42 logCFU/thigh. Further, the “Average Change logCFU/thigh” value in series [3] (setting [10]) was −0.62 logCFU/thigh. For the same molecule, the “Average Change logCFU/thigh” value in series [3] (setting [11]) is reported as −0.77 logCFU/thigh.
